Test results as given in patent publication US20220370636A1, “NICOTINAMIDE ADENINE DINUCLEOTIDE ACTIVATOR AND USE THEREOF” (University of South Florida, priority 2021, published 2022).

How the values were obtained:
[1] = system: db/db mice; assay: qPCR gene expression of gastrocnemius muscle and MyHC1 myofibre staining in db/db mice; format: in vivo
Procedure: Quantitative real-time PCR. Total RNA was isolated from GAS muscle using the Exiqon miRCURY RNA Isolation kit (Exiqon, Mass., USA) according to the manufacturer's protocol. Complimentary DNA from total RNA was synthesized with iScript cDNA synthesis kit (Bio-Rad Laboratories, CA, USA) and quantitative real-time PCR (qPCR) analysis was performed on key transcriptome targets using iTaq Universal SYBR Green Supermix (Bio-Rad Laboratories, CA, USA). The cDNA synthesis and qPCR procedures were performed as described previously. The mouse HPRT gene was used as an internal control.
Myofibre staining. The 10 μm thick transverse serial cryosections of TA muscles were cut at the mid-belly region using Microm cryostat ma-chine. Briefly, the tissue sections were blocked with 0.2% bovine serum albumin (BSA) and 10% normal sheep serum (NSS) in PBS-Triton X100 (PBST) for 1 h at RT. All washes were carried out with PBS. Following washing, the sections were incubated in 5 μg/mL of mouse monoclonal primary antibody against myosin heavy chain type-1 (A4.840s DSHB, IA, USA) in 0.2% BSA and 5% NSS antibody dilution buffer in PBST overnight at 4° C. After washing, the sections were then fixed with 10% neutral buffered formalin for 5 min at RT, washed and incubated in 1:300 dilution of biotinylated sheep anti-mouse IgG (ab6807, Abcam, Mass., USA) and 1:1000 dilution of rabbit anti-laminin (L9393, Sigma-Aldrich, MO, USA) in the antibody dilution buffer for 1 h at RT. Following washes, the tissue sections were then incubated in 1:400 dilution of streptavidin AF488 conjugate and goat anti-rabbit AF594 (Invitrogen, CA, USA) and then washed and mounted with Prolong gold anti-fade mounting medium with DAPI (Invitrogen, CA, USA). Images were obtained at ×10 and ×20 magnifications with the Olympus IX73 inverted microscope using CellSens Standard software (Olympus Soft Imaging Solution, USA) and the MyHC1 positive myofibres were quantified with ImageJ software.

[2] = system: db/db mice; assay: Luminex Magpix IP-10 immunoassay of serum; format: in vivo; details: vs db-Veh
Procedure: Luminex Magpix IP-10 (C—X—C motif chemokine ligand 10) immunoassay. The serum inflammatory markers were analysed using a mouse cytokine/chemokine antibody-immobilized premixed 32-plex Luminex magnetic beads based 96-Well plate immunoassay kit (Milliplex Map kit—MCYTMAG-70K-PX32, EMD Millipore Corporation, MA, USA) according to the manufacturer's instruction. Briefly, the serum samples were diluted at 1:2 in the assay buffer and measured in duplicates along with the standards and quality controls. The serum samples were incubated overnight at 4° C. with the magnetic beads. The wells were then washed with wash buffer and incubated with the detection antibodies for 1 h at RT, followed by a streptavidin-phycoerythrin incubation for 30 min at RT. After washing, the plate was run on MAGPIX with xPONENT software. The mean fluorescent intensity data was analysed using a five-parameter logistic curve-fitting Multi Analyst software for calculating the cytokine/chemokine concentrations of the samples (n=6 mice per group).

[3] = system: db/db mice; assay: Serum pyruvate in db/db mice; format: in vivo; details: vs db-Veh
Procedure: Serum pyruvate enzymatic activity. Serum pyruvate levels were measured using the pyruvate assay kit (Sigma-Aldrich, MO, USA) as per manufacturer's protocol. Briefly, 5 μL of the serum samples were added to each well along with the pyruvate assay buffer, probe solution and the enzyme mix, and incubated for 30 min at RT.

[4] = system: db/db mice hearts; assay: Western blotting of db/db heart lysates; format: in vivo; details: vs vehicle
Procedure: Western blotting. For studies aimed to assess the insulin stimulated AKT phosphorylation, following four-week P7C3 treatment, mice were injected with Novolin R human insulin (1 Unit/kg body weight, i.p.), and hearts were collected after 5 minutes for Western blot analysis. Protein lysates for Western blotting were prepared from mouse hearts as described previously. Equivalent amounts of protein were loaded and resolved using 12% precast polyacrylamide gels (BioRad, CA, USA). Successful transfer of proteins was detected using Ponceau S (Sigma-Aldrich, MO, USA), and blots were probed with mouse monoclonal primary antibody for phospho AKT^ser473 (p-AKT), total AKT (t-AKT), phospho eNOS^ser1177 (p-eNOS), total eNOS (t-eNOS), Beclin1, and GAPDH (Cell signaling, MA, USA). HRP conjugated Rabbit anti-mouse antibody (Millipore) was used as a secondary antibody. Target protein band densities were quantified using Image J software.

[5] = system: Sirt1; assay: Sirt1 deacetylase activity in db/db heart lysates; format: in vivo, mice; details: vs vehicle controls
Procedure: Sirt1 deacetylase activity. Sirt1 deacetylase activity was measured in the whole heart lysates from the vehicle and P7C3 treated db/db mice according to the manufacturer's protocol using a deacetylase fluorometric assay kit (Sigma-Aldrich, MO, USA). The fluorescence intensity was measured at 440 nm (excitation, 340 nm).

[6] = system: db/db mice; assay: Fasting blood glucose, ITT, GTT and insulin in db/db mice
Procedure: Mice were fasted 6 h, and tail vein blood was used for glucose measurement with ACCU-CHECK blood glucose meter (Roche Diagnostics, Mannheim, Germany) on a weekly basis for 4 weeks.
Insulin tolerance test. […] After 4 weeks of treatment, both the db-Veh and db-P7C3 treated mice were fasted overnight for GTT assay. GTT was performed by a single dose of intraperitoneal injection of 2 g/kg body weight of D-(+)-glucose (Sigma-Aldrich, MO, USA). Blood samples were obtained by the retro orbital plexus technique. Serum glucose levels were determined prior to glucose administration (0 min) and after 30, 60, 90, and 120 min of glucose injection, using glucose oxidase peroxidase kit (Pointe Scientific Inc., MI. USA) and following manufacturer's instructions. […] The index of the total glucose shift was calculated as the area under the curve (AUC) using trapezium method.

[7] = gastrocnemius muscle, vs db-Veh
[8] = gastrocnemius muscle, vs db-Veh and C57Bl/6J
[9] = gastrocnemius muscle, vs db-Veh and WT

OC(CNc1ccccc1)Cn1c2ccc(Br)cc2c2cc(Br)ccc21 (centres unmarked) [P7C3, 3,6-Dibromo-a-[(phenylamino)methyl]-9H-carbazole-9-ethanol]
TNFα expression in skeletal muscle ([1]; gastrocnemius muscle, db-Veh vs db-P7C3): high levels in db-Veh compared with db-P7C3
CD36 expression [1, 7]: significantly down-regulated
Fabp1 expression [1, 7]: significantly down-regulated
Fgf21 expression [1, 7]: significant reduction
MyHC type 1 (MyHC1) expression levels [1, 7]: significant de-crease
Cpt1 expression [1, 8]: significantly up-regulated
Pdk4 expression [1, 8]: significantly up-regulated
MyHC-2a expression levels [1, 9]: no significant change
MyHC-2b expression levels [1, 9]: no significant change
MyHC-2× expression levels [1, 9]: no significant change
number of MyHC1 positive myofibres ([1]; tibialis anterior immunostaining, vs db-Veh): significant decrease
serum IP-10 levels [2]: significant decrease
serum pyruvate levels [3]: significantly high
p-AKT signaling in cardiac tissue ([4]; 10 mg/kg/day i.p.): significantly increased
Beclin 1 protein expression [4]: significant increase
p-eNOS levels in cardiac tissue [4]: significantly increased
SiRT1 activity in cardiac tissue [5]: significant increase
fasting blood glucose levels ([6]; 10 mg/kg/day i.p., 4 weeks, 6 h fasting, vs vehicle): significant decrease
circulating blood glucose levels in response to the ITT ([6]; 10 mg/kg/day i.p., 4 weeks, vs db-Veh): significantly reduced
HOMA-IR ([6]; 4 weeks, vs db-Veh): decreased
circulating insulin levels ([6]; 4 weeks, vs db-Veh): increased
β cells function (HOMA-B) ([6]; 4 weeks, vs db-Veh): increased
GTT percent AUC ([6]; trapezium method, vs db-Veh): significant decrease
